{"source": "ChEMBL document CHEMBL1201862", "about": "“PubChem BioAssay data set” (2004)", "assay_type_in_all_cases": "functional", "key": {"[1]": {"target": "T1, Sentrin-specific protease 7 (Homo sapiens, UniProt Q9BQF6)", "T1 sequence (Q9BQF6 whole entry)": "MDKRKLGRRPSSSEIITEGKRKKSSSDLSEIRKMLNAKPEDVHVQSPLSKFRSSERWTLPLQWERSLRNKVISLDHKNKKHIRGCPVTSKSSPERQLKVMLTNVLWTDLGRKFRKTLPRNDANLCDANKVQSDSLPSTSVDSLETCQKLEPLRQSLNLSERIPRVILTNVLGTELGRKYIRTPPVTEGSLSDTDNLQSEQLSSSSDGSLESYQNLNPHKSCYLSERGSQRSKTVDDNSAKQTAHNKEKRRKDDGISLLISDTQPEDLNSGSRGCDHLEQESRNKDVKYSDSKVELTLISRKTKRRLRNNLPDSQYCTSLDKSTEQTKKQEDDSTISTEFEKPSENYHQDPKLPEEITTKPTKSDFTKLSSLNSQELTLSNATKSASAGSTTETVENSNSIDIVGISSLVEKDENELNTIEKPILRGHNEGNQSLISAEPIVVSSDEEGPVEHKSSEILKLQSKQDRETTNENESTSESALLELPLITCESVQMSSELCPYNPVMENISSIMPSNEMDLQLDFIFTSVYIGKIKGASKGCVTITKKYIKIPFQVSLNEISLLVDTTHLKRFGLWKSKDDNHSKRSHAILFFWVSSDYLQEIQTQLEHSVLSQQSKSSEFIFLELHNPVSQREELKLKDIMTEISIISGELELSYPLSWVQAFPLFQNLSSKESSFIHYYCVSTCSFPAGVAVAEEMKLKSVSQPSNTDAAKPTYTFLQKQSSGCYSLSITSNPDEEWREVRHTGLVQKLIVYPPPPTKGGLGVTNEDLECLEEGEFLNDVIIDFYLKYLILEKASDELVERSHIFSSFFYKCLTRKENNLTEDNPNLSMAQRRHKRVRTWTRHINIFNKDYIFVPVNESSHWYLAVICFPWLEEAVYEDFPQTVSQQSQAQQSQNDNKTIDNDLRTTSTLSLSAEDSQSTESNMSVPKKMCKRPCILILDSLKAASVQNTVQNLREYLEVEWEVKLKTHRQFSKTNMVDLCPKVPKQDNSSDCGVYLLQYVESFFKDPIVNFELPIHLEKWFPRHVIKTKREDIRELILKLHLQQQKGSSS"}, "[2]": {"target": "T2, Caspase-3 (Homo sapiens, UniProt P42574)", "T2 sequence (P42574 whole entry)": "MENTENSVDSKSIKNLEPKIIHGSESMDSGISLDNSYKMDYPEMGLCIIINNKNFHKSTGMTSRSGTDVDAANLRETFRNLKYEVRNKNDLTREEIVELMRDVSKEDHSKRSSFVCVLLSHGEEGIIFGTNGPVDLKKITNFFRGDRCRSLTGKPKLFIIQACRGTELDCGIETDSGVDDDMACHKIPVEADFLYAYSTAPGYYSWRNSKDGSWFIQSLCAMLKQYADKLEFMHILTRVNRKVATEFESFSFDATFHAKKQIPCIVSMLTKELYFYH"}, "[3]": {"target": "Serine/threonine-protein kinase BRSK1 (Homo sapiens, UniProt Q8TDC3)"}, "[4]": {"target": "Non-receptor tyrosine-protein kinase TYK2 (Homo sapiens, UniProt P29597)"}, "[5]": {"target": "Tyrosine-protein kinase FRK (Homo sapiens, UniProt P42685)", "sequence (P42685 whole entry)": "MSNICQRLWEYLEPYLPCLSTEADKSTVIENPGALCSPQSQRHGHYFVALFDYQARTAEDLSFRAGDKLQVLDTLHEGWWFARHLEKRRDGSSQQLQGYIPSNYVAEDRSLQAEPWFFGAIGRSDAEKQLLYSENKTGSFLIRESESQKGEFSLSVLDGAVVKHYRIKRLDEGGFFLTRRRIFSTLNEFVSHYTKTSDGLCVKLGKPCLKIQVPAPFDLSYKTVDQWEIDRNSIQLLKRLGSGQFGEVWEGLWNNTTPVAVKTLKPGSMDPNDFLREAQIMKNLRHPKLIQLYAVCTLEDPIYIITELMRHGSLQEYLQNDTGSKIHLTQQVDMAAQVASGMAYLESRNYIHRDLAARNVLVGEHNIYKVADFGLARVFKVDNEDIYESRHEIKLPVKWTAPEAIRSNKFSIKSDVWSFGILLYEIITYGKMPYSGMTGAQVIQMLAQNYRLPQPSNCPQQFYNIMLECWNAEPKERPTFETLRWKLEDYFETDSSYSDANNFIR"}, "[6]": {"target": "Tyrosine-protein kinase ITK/TSK (Homo sapiens, UniProt Q08881)"}, "[7]": {"target": "Serine/threonine-protein kinase PLK4 (Homo sapiens, UniProt O00444)"}, "[8]": {"target": "Homeodomain-interacting protein kinase 4 (Homo sapiens, UniProt Q8NE63)"}, "[9]": {"target": "RAC-gamma serine/threonine-protein kinase (Homo sapiens, UniProt Q9Y243)", "sequence (Q9Y243 whole entry)": "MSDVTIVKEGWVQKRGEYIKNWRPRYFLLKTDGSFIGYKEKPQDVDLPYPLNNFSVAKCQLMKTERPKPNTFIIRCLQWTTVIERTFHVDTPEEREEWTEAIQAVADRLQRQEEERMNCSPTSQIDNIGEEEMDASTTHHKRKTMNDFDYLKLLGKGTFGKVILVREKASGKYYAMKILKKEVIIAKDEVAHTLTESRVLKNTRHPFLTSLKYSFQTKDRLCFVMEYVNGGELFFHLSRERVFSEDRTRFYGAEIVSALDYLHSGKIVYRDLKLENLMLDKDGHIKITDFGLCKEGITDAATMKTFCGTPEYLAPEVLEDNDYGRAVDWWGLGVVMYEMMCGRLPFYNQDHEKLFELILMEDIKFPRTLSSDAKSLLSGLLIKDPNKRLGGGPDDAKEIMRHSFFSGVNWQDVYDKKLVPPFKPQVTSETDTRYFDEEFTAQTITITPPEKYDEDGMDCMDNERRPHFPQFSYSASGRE"}, "[10]": {"target": "Casein kinase I isoform alpha (Homo sapiens, UniProt P48729)", "sequence (P48729 whole entry, canonical isoform)": "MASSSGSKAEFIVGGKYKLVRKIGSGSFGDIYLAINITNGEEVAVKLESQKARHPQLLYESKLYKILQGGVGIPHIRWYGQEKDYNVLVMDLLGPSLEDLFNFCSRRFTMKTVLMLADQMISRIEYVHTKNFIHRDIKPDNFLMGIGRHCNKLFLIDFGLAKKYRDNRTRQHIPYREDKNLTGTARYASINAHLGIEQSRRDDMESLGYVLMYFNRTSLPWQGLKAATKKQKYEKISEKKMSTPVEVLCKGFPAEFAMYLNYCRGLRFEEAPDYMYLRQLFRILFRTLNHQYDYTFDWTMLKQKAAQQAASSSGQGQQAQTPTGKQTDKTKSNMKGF"}, "[11]": {"target": "Calcium/calmodulin-dependent protein kinase type 1 (Homo sapiens, UniProt Q14012)"}, "[12]": {"target": "Mitogen-activated protein kinase 1 (Homo sapiens, UniProt P28482)", "sequence (P28482 whole entry)": "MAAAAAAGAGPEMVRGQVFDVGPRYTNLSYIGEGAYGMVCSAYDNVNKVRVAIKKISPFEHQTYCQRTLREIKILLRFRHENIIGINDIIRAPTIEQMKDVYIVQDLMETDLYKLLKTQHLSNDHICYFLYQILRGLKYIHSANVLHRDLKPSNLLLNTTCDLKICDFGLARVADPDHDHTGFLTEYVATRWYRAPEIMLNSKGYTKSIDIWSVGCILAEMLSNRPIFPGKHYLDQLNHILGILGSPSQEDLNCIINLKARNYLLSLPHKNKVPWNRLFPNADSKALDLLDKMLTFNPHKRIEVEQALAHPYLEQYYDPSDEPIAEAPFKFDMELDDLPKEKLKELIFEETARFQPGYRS"}, "[13]": {"target": "Cell division cycle 7-related protein kinase (Homo sapiens, UniProt O00311)", "sequence (O00311 whole entry)": "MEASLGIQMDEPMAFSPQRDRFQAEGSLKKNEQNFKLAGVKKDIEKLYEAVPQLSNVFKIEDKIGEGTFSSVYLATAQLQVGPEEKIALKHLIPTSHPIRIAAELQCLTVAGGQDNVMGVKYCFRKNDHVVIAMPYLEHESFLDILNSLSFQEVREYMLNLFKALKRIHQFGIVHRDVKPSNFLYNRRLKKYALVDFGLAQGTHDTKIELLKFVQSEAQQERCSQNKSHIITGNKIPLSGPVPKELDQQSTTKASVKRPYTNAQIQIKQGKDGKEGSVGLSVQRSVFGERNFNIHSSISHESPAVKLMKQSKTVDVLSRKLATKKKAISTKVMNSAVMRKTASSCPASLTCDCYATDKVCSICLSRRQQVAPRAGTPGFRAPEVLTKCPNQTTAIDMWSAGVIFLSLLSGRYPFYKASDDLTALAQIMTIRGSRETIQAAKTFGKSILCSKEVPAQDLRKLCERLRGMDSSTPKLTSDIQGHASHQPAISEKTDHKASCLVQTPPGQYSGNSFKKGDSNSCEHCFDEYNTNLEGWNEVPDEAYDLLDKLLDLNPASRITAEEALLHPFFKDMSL"}, "[14]": {"target": "Ribosomal protein S6 kinase alpha-5 (Homo sapiens, UniProt O75582)"}, "[15]": {"target": "MAP kinase-activated protein kinase 3 (Homo sapiens, UniProt Q16644)"}, "[16]": {"target": "Interleukin-1 receptor-associated kinase 4 (Homo sapiens, UniProt Q9NWZ3)"}, "[17]": {"target": "Interleukin-1 receptor-associated kinase 1 (Homo sapiens, UniProt P51617)", "sequence (P51617 whole entry)": "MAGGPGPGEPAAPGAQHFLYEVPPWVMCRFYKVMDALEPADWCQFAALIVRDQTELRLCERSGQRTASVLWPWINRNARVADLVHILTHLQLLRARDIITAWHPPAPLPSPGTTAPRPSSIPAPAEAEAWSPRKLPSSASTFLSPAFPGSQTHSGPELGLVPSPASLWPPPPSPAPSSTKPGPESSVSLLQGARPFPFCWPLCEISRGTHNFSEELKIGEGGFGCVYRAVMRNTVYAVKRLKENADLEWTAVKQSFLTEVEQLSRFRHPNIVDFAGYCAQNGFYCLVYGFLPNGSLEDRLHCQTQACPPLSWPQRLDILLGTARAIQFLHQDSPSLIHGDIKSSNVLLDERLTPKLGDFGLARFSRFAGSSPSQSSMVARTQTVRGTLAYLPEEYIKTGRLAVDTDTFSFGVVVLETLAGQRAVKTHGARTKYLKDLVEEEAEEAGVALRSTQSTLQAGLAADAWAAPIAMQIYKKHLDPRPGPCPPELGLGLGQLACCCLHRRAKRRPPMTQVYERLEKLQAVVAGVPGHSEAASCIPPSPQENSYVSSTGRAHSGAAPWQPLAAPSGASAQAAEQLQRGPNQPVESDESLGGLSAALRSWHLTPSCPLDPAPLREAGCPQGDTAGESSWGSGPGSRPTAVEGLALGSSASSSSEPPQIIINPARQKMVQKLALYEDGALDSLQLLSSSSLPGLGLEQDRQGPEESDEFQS"}, "[18]": {"target": "Cyclin-dependent kinase 1 (Homo sapiens, UniProt P06493)", "sequence (P06493 whole entry)": "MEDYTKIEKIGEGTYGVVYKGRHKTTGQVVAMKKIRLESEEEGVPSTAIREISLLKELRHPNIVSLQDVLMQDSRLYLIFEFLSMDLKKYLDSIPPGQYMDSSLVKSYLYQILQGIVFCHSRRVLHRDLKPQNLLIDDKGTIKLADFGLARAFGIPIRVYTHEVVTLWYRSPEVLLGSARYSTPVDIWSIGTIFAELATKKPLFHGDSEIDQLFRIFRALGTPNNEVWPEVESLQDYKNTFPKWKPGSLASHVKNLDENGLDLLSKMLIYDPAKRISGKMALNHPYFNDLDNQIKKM"}, "[19]": {"target": "Protein kinase C iota type (Homo sapiens, UniProt P41743)", "sequence (P41743 whole entry)": "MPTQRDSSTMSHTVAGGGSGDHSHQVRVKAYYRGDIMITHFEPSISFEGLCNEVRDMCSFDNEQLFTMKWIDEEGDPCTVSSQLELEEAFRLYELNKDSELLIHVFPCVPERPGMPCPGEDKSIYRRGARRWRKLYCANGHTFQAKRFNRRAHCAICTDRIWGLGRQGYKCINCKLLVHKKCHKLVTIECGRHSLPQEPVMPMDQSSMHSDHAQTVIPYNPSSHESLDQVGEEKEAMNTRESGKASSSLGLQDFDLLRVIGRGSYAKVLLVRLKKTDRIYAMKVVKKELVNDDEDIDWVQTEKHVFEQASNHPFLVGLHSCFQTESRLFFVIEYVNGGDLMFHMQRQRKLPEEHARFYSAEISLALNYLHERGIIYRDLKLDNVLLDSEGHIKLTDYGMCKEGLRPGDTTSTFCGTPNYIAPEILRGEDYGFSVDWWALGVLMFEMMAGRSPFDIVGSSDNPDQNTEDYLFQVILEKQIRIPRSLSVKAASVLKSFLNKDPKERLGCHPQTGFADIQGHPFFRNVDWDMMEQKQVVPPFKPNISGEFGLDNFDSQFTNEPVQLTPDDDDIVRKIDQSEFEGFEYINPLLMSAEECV"}, "[20]": {"target": "Protein-tyrosine kinase 6 (Homo sapiens, UniProt Q13882)"}, "[21]": {"target": "Megakaryocyte-associated tyrosine-protein kinase (Homo sapiens, UniProt P42679)", "sequence (P42679 whole entry)": "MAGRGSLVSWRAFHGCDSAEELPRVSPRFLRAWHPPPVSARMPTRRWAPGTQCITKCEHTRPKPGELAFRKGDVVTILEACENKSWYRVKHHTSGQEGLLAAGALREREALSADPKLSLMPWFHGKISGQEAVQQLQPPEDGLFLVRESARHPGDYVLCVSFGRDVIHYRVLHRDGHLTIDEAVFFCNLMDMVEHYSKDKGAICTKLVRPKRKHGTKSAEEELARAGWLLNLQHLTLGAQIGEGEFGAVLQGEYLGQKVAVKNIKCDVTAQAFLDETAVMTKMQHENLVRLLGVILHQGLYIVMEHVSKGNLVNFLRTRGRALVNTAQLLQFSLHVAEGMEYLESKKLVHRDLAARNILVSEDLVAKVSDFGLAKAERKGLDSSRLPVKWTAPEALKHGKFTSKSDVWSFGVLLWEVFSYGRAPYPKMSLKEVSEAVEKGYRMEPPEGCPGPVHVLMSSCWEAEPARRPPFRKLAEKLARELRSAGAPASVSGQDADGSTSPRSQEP"}, "[22]": {"target": "Dual specificity protein kinase CLK2 (Homo sapiens, UniProt P49760)", "sequence (P49760 whole entry)": "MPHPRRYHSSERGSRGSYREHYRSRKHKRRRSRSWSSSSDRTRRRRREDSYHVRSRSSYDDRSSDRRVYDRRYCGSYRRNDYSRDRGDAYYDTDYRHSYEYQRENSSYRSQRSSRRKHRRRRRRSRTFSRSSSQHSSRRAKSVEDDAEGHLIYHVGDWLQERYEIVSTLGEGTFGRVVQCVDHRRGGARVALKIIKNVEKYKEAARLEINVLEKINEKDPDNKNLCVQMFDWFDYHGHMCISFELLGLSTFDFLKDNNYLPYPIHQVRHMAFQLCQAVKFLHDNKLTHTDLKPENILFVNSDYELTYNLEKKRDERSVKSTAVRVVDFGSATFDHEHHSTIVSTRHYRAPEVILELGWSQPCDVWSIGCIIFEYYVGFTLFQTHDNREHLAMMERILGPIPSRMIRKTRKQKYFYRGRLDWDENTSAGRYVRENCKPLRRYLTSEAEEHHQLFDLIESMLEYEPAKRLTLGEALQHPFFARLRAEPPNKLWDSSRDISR"}, "[23]": {"target": "Hepatocyte growth factor receptor (Homo sapiens, UniProt P08581)"}, "[24]": {"target": "Platelet-derived growth factor receptor alpha (Homo sapiens, UniProt P16234)", "assay": "Navigating the Kinome. Panel member name: PDGFRA"}, "[25]": {"target": "Rho-associated protein kinase 1 (Homo sapiens, UniProt Q13464)"}}, "note": "Active and inactive are the calls of the source.", "data": [{"smiles": "COc1ccc(-n2c(NC(=O)c3ccco3)c(C#N)c3nc4ccccc4nc32)cc1", "values": [{"measurement": "IC50", "setting": "[1]", "value": "5780 nM (active)"}, {"measurement": "IC50", "setting": "[2]", "value": "26600 nM (active)"}]}, {"smiles": "Cc1n[nH]c2ccc(-c3cncc(OCC(N)Cc4ccc(Cl)c(Cl)c4)c3)cc12", "note": "(stereo not given)", "values": [{"measurement": "Ki", "setting": "[3]", "value": "3160 nM (active)"}, {"measurement": "Ki", "setting": "[4]", "value": "> 2000 nM (inactive)"}, {"measurement": "Ki", "setting": "[5]", "value": "> 2510 nM (inactive)"}, {"measurement": "Ki", "setting": "[6]", "value": "> 1580 nM (inactive)"}, {"measurement": "Ki", "setting": "[7]", "value": "1260 nM (active)"}, {"measurement": "Ki", "setting": "[8]", "value": "2510 nM (active)"}, {"measurement": "Ki", "setting": "[9]", "value": "3.98 nM (active)"}, {"measurement": "Ki", "setting": "[10]", "value": "316 nM (active)"}, {"measurement": "Ki", "setting": "[11]", "value": "251 nM (active)"}, {"measurement": "Ki", "setting": "[12]", "value": "39.8 nM (active)"}, {"measurement": "Ki", "setting": "[13]", "value": "12.6 nM (active)"}, {"measurement": "Ki", "setting": "[14]", "value": "1.26 nM (active)"}, {"measurement": "Ki", "setting": "[15]", "value": "> 10000 nM (inactive)"}, {"measurement": "Ki", "setting": "[16]", "value": "126 nM (active)"}, {"measurement": "Ki", "setting": "[17]", "value": "501 nM (active)"}, {"measurement": "Ki", "setting": "[18]", "value": "50.1 nM (active)"}, {"measurement": "Ki", "setting": "[19]", "value": "1000 nM (active)"}, {"measurement": "Ki", "setting": "[20]", "value": "> 2510 nM (inactive)"}, {"measurement": "Ki", "setting": "[21]", "value": "> 2000 nM (inactive)"}]}, {"smiles": "[2H]C([2H])([2H])Oc1cccc(C(C)NC(=O)c2sc(-c3ccncc3)nc2C)c1", "note": "(stereo not given)", "values": [{"measurement": "Ki", "setting": "[22]", "value": "> 3980 nM (inactive)"}, {"measurement": "Ki", "setting": "[23]", "value": "> 2510 nM (inactive)"}, {"measurement": "Ki", "setting": "[24]", "value": "> 2510 nM (inactive)"}, {"measurement": "Ki", "setting": "[25]", "value": "12.6 nM (active)"}]}]}
